The source of these data is patent US10351883B2, “Compounds for increasing lipid synthesis and storage” (NUtech Ventures, priority 2015, dated 2019).

Where two headings read alike, the source gives them in different places.

The test concerns Chlamydomonas reinhardtii. Nature of the test: 8-point dose response assay (0.25-30 μM). The format is cell-based. The arrangement: reference not given here. The conditions noted are these: for Dose Response Assay 0.25 μM: 0.25 μM compound; for Dose Response Assay 0.625 μM: 0.625 μM compound; for Dose Response Assay 2.5 μM: 2.5 μM compound; for Dose Response Assay 5 μM: 5 μM compound; for Dose Response Assay 10 μM: 10 μM compound; for Dose Response Assay 15 μM: 15 μM compound; for Dose Response Assay 30 μM: 30 μM compound. As for the experimental part: A large scale in vivo high throughput screen (HTS) was performed to identify small compounds that stimulate lipid production and accumulation using the model organism Chlamydomonas reinhardtii. The HTS employed a 384-well microplate format in which cells were allowed to grow in the presence of the test compounds at 10 μM final concentration for 72 hours.
The screening library included 43,736 compounds (ChemBridge, Corp). […] A sub-set of compounds were retested using an 8-point dose response assay (0.25-30 μM). Compounds were further assessed visually using a Nikon Ti-inverted microscope (60×) to reconfirm lipid droplet accumulation was induced.

Setting [1] is: 8-point dose response, Nile Red lipid accumulation.
Where [2] appears, read: 1.25 μM compound, 8-point dose response, Nile Red lipid accumulation.

For the molecule `O=C(Nc1ccc([N+](=O)[O-])cc1)c1cccc(Cl)c1Cl` [Compound 38], under setting [1], the “Dose Response Assay 0.25 μM” value amounted to 1.06, the “Dose Response Assay 0.625 μM” value amounted to 1.38, the “Dose Response Assay 2.5 μM” value is recorded as 2.23 and the “Dose Response Assay 5 μM” value is given as 2.64. In addition, under setting [1], the “Dose Response Assay 10 μM” value worked out at 2.94, the “Dose Response Assay 15 μM” value was determined as 2.61 and the “Dose Response Assay 30 μM” value turned out to be 2. Moreover, the “Dose Response Assay 1.25 μM” value under setting [2] was found to be 1.23.

With `CC(=O)c1nc2cc([N+](=O)[O-])ccc2n1Cc1ccccc1` [Compound 23], under setting [1], the “Dose Response Assay 0.25 μM” value is reported as 1.02, the “Dose Response Assay 0.625 μM” value came out at 1, the “Dose Response Assay 2.5 μM” value was found to be 0.78 and the “Dose Response Assay 5 μM” value is 1.04. For the same molecule, under setting [1], the “Dose Response Assay 10 μM” value worked out at 1.1, the “Dose Response Assay 15 μM” value amounted to 1.43 and the “Dose Response Assay 30 μM” value is recorded as 1.15. Under setting [2], the “Dose Response Assay 1.25 μM” value is 0.79.

`O=[N+]([O-])c1ccccc1CN1CCN(CC2CC3C=CC2C3)CC1` (stereo not shown) [Compound 39]: under setting [1], the “Dose Response Assay 0.25 μM” value was 1.17, the “Dose Response Assay 0.625 μM” value is recorded as 1.13, the “Dose Response Assay 2.5 μM” value was determined as 1.18 and the “Dose Response Assay 5 μM” value is 1.18. Further, under setting [1], the “Dose Response Assay 10 μM” value is on record as 0.88, the “Dose Response Assay 15 μM” value came out at 1.57 and the “Dose Response Assay 30 μM” value came to 1.38. For the same molecule, the “Dose Response Assay 1.25 μM” value under setting [2] is reported as 0.99.

On to `Cc1ccc(S(=O)(=O)c2ccc(-c3ccc([N+](=O)[O-])cc3)cc2)cc1` [Compound 2], for which, under setting [1], the “Dose Response Assay 0.25 μM” value was found to be 0.96, the “Dose Response Assay 0.625 μM” value was 1.01, the “Dose Response Assay 2.5 μM” value came out at 0.99 and the “Dose Response Assay 5 μM” value came to 1.1. For the same molecule, under setting [1], the “Dose Response Assay 10 μM” value is reported as 1.53, the “Dose Response Assay 15 μM” value is recorded as 1.34 and the “Dose Response Assay 30 μM” value was found to be 2.11. The “Dose Response Assay 1.25 μM” value under setting [2] was found to be 0.94.

In the case of `COc1ccccc1N1CCN(Cc2ccc(Cl)cc2)CC1` [Compound 68], the “Dose Response Assay 1.25 μM” value is 1.28. For the same molecule, under setting [1], the “Dose Response Assay 0.25 μM” value is 1.07, the “Dose Response Assay 0.625 μM” value is recorded as 1.05, the “Dose Response Assay 2.5 μM” value came out at 2.15 and the “Dose Response Assay 5 μM” value is given as 2.1. Besides, under setting [1], the “Dose Response Assay 10 μM” value is recorded as 1.95, the “Dose Response Assay 15 μM” value came to 2.74 and the “Dose Response Assay 30 μM” value is recorded as 2.03.

As to `CC(C)c1ccc(CN2CCN(C)CC2)cc1` [Compound 70], the “Dose Response Assay 1.25 μM” value is on record as 2.19. Under setting [1], the “Dose Response Assay 0.25 μM” value came to 0.87, the “Dose Response Assay 0.625 μM” value was 1.55, the “Dose Response Assay 2.5 μM” value amounted to 4.4 and the “Dose Response Assay 5 μM” value was determined as 8.64. Besides, under setting [1], the “Dose Response Assay 10 μM” value was found to be 7.57, the “Dose Response Assay 15 μM” value is recorded as 11.05 and the “Dose Response Assay 30 μM” value was 11.07.

As to `CCOc1c(Cl)cc(C(=O)Nc2cccc([N+](=O)[O-])c2)cc1Cl` [Compound 61], under setting [1], the “Dose Response Assay 0.25 μM” value is recorded as 0.90, the “Dose Response Assay 0.625 μM” value was 0.96, the “Dose Response Assay 2.5 μM” value came out at 0.95 and the “Dose Response Assay 5 μM” value was 1.04. Moreover, under setting [1], the “Dose Response Assay 10 μM” value is on record as 0.91, the “Dose Response Assay 15 μM” value was 1.24 and the “Dose Response Assay 30 μM” value worked out at 1.14. Moreover, the “Dose Response Assay 1.25 μM” value under setting [2] was determined as 0.92.

Consider `Cc1cccc(N2CCN(Cc3ccc([N+](=O)[O-])cc3)CC2)c1C` [Compound 5], for which, under setting [1], the “Dose Response Assay 0.25 μM” value was 0.97, the “Dose Response Assay 0.625 μM” value is given as 0.85, the “Dose Response Assay 2.5 μM” value is recorded as 0.91 and the “Dose Response Assay 5 μM” value worked out at 1.28. For the same molecule, under setting [1], the “Dose Response Assay 10 μM” value worked out at 2.07, the “Dose Response Assay 15 μM” value is 1.96 and the “Dose Response Assay 30 μM” value stood at 2.81. For the same molecule, the “Dose Response Assay 1.25 μM” value under setting [2] stood at 0.80.

As to `COc1ccc(C(=O)c2ccc(N3CCN(C)CC3)c([N+](=O)[O-])c2)cc1` [Compound 45], under setting [1], the “Dose Response Assay 0.25 μM” value was found to be 0.93, the “Dose Response Assay 0.625 μM” value worked out at 0.99, the “Dose Response Assay 2.5 μM” value came out at 2.3 and the “Dose Response Assay 5 μM” value worked out at 3.61. Moreover, under setting [1], the “Dose Response Assay 10 μM” value is reported as 2.02, the “Dose Response Assay 15 μM” value came out at 2.06 and the “Dose Response Assay 30 μM” value was 1.56. The “Dose Response Assay 1.25 μM” value under setting [2] was 1.57.

Regarding `Cc1ccc(C(=O)c2ccc(N3CCN(C)CC3)c([N+](=O)[O-])c2)cc1` [Compound 46], under setting [1], the “Dose Response Assay 0.25 μM” value came out at 1.23, the “Dose Response Assay 0.625 μM” value was found to be 0.96, the “Dose Response Assay 2.5 μM” value stood at 1.61 and the “Dose Response Assay 5 μM” value worked out at 2.31. Moreover, under setting [1], the “Dose Response Assay 10 μM” value turned out to be 2.75, the “Dose Response Assay 15 μM” value came out at 2.63 and the “Dose Response Assay 30 μM” value is recorded as 1.78. Under setting [2], the “Dose Response Assay 1.25 μM” value was found to be 0.94.

Turning to `Oc1ccc(Cl)cc1CN1CCN(Cc2ccccc2)CC1` [Compound 107], the “Dose Response Assay 1.25 μM” value was determined as 1.23. Under setting [1], the “Dose Response Assay 0.25 μM” value was 0.98, the “Dose Response Assay 0.625 μM” value stood at 1.01, the “Dose Response Assay 2.5 μM” value was 2.05 and the “Dose Response Assay 5 μM” value came out at 2.31. In addition, under setting [1], the “Dose Response Assay 10 μM” value is 2.48, the “Dose Response Assay 15 μM” value is recorded as 3.07 and the “Dose Response Assay 30 μM” value worked out at 3.06.

On to `O=C(Nc1ccc([N+](=O)[O-])cc1)c1ccccc1Cl` [Compound 11], for which, under setting [1], the “Dose Response Assay 0.25 μM” value came to 1.02, the “Dose Response Assay 0.625 μM” value was 1.12, the “Dose Response Assay 2.5 μM” value amounted to 0.93 and the “Dose Response Assay 5 μM” value is 1.46. Under setting [1], the “Dose Response Assay 10 μM” value is listed as 2.78, the “Dose Response Assay 15 μM” value was 2.28 and the “Dose Response Assay 30 μM” value worked out at 1.78. The “Dose Response Assay 1.25 μM” value under setting [2] is given as 0.97.

As for `CCc1ccc(CN2CCN(c3ccccc3C)CC2)cc1` [Compound 84], the “Dose Response Assay 1.25 μM” value came out at 1. Moreover, under setting [1], the “Dose Response Assay 0.25 μM” value came to 0.92, the “Dose Response Assay 0.625 μM” value was 0.89, the “Dose Response Assay 2.5 μM” value is 2.5 and the “Dose Response Assay 5 μM” value was 2.05. Also, under setting [1], the “Dose Response Assay 10 μM” value was 1.64, the “Dose Response Assay 15 μM” value came to 2.19 and the “Dose Response Assay 30 μM” value is listed as 1.34.

Take `Cl.Oc1ccccc1CNCCC12CC3CC(CC(C3)C1)C2` [Compound 148]: under setting [1], the “Dose Response Assay 0.25 μM” value worked out at 0.94, the “Dose Response Assay 0.625 μM” value was 1.04, the “Dose Response Assay 2.5 μM” value came out at 1.32 and the “Dose Response Assay 5 μM” value is 1.63. Moreover, under setting [1], the “Dose Response Assay 10 μM” value is given as 1.39, the “Dose Response Assay 15 μM” value is recorded as 1.65 and the “Dose Response Assay 30 μM” value is listed as 1.45. Besides, the “Dose Response Assay 1.25 μM” value under setting [2] stood at 0.88.

Take `O=C(Nc1ccccc1C(=O)NCc1ccccc1)c1ccc([N+](=O)[O-])cc1` [Compound 53]: under setting [1], the “Dose Response Assay 0.25 μM” value is recorded as 1.06, the “Dose Response Assay 0.625 μM” value was found to be 1.38, the “Dose Response Assay 2.5 μM” value was 1.1 and the “Dose Response Assay 5 μM” value came out at 1.42. Also, under setting [1], the “Dose Response Assay 10 μM” value is on record as 1.57, the “Dose Response Assay 15 μM” value is on record as 1.61 and the “Dose Response Assay 30 μM” value worked out at 2.49. Moreover, the “Dose Response Assay 1.25 μM” value under setting [2] was determined as 1.13.

As to `O=C(Nc1ccc([N+](=O)[O-])cc1)c1c(F)c(F)c(F)c(F)c1F` [Compound 56], under setting [1], the “Dose Response Assay 0.25 μM” value came to 1.2, the “Dose Response Assay 0.625 μM” value came out at 1.2, the “Dose Response Assay 2.5 μM” value is on record as 1.8 and the “Dose Response Assay 5 μM” value is 2.58. Further, under setting [1], the “Dose Response Assay 10 μM” value is listed as 2.71, the “Dose Response Assay 15 μM” value was found to be 1.74 and the “Dose Response Assay 30 μM” value worked out at 1.92. The “Dose Response Assay 1.25 μM” value under setting [2] amounted to 1.34.

Take `Cc1ccc(C(=O)Nc2ccccc2C(=O)NC(C)C)cc1[N+](=O)[O-]` [Compound 54]: under setting [1], the “Dose Response Assay 0.25 μM” value is recorded as 1.05, the “Dose Response Assay 0.625 μM” value is 1.53, the “Dose Response Assay 2.5 μM” value is listed as 2.32 and the “Dose Response Assay 5 μM” value was 2.79. In addition, under setting [1], the “Dose Response Assay 10 μM” value came out at 1.73, the “Dose Response Assay 15 μM” value was found to be 1.78 and the “Dose Response Assay 30 μM” value is given as 1.58. Under setting [2], the “Dose Response Assay 1.25 μM” value amounted to 2.13.
